Peptide text beside a SMILES is read from it. * marks the point of attachment. Cbz = O=C(OCc1ccccc1)*
Tests used:
Format in all cases: cell-based, human
MCF7 cells [1] = test: Cell viability assay (MTT assay); conditions: for response of cells to drug (percent viability, MTT assay): MCF7 cells
Protocol: (§1) MCF7 and MCF7/ADR cells were a kind gift from Dr. Ken Cowan (National Cancer Institute, Bethesda, Md.). MCF7, MCF7/ADR, MCF7/siMCJ-1B MCF7/siMCJ-3B, […], MD22, MES-SA and MES-Dx5 cells were maintained in RPMI-1640 (Life technologies, Inc., Gaithersburg, Md.) containing 5% FBS (Hyclone, Logan, Utah), Penicillin/streptomycin and 1-glutamine (Gibco). 293T cells were cultured in DMEM-F12 medium (Life technologies, Inc.) supplemented with 10% FBS (Hyclone, Logan, Utah).
(§2) The dose response of cell line to different drugs was determined by MTT assay as described previously (Conze et al., Cancer Res 61, 8851-8858, 2001; Sladowski et al., J Immunol Methods 157, 203-207, 1993). Different concentrations of drug were used, ranging from 0-100 μM for Doxorubicin, 0-30 μM for Paclitaxel and 0-30 μM for 5-Flurouracil. LD50 values were calculated by non-linear regression and plotted graphically as percentage of viable cells.

MCF7/ADR cells [2] = test: Cell viability assay (MTT assay)
Protocol: as §1, §2

MCF7/siMCJ-1B cells [3] = test: Cell viability assay (MTT assay)
Protocol: as §1, §2

MCF7/siMCJ-3B cells [4] = test: Cell viability assay (MTT assay)
Protocol: as §1, §2

MCF7 cells [5] = test: Analysis of drug internalization (flow cytometry, confocal microscopy)
Protocol: (§3) MCF7, MCF7/ADR, MCF7/siMCJ-1B and MCF7/siMCJ-3B cells were treated with doxorubicin (0.3 or 3 μM) for 3 h at 37° C. Negative controls had no drug added. Cells were washed 3 times with PBS and trypsinised and doxorubicin fluorescence was examined by flow cytometry using a LSRII flow cytometer (BD Biosciences, Mass.). FLP3, 695/40 nm filter with 685 nm long pass was used to measure doxorubicin fluorescence. For MCF7/siMCJ cells, EGFP was detected in FLP1, 530/30 nm band-pass with 505 nm long pass. No overlap of two fluorescences could be detected. Confocal microscopy: MCF7, MCF7/ADR, MCF7/siMCJ-1B and -3B (3×10^4) cells were seeded on BD Biocoat coverslips (BD Biosciences, Bedford, Mass.) and treated with doxorubicin in the presence or absence of veraparnil (10 μM). After different periods of time (0, 2, 3 h) cells were washed with PBS and fixed in 3.7% paraformaldehyde to be examined by confocal microscopy. Since both, EGFP (present in MCF7/siMCJ cells) and doxorubicin are excited by 488 nm, the conventional multi track type of analysis could not be used. Instead, the Lambda Mode analysis in the Zeiss confocal microscope (Zeiss LSM 510 META Confocal Laser Scanning Imaging System, Carl Ziess Microimaging Inc, Thronwood, N.Y.) was used that allows a precise analysis of the emission spectrum for each fluorochrome (Chen and Simon, J Cell Biol 148, 863-870, 2000). The cells were excited at 488 nm and emission peaks were readily separated by this methodology with EGFP emission at 500 nm and doxorubicin at 600 nm (FIG. 10).

MCF7/ADR cells [6] = test: as above; conditions: 0.3 and 3 μM, 3 h
Protocol: as §3

MCF7/siMCJ-1B cells [7] = test: as above; conditions: for effect on intracellular accumulation of doxorubicin: verapamil 10 μM
Protocol: as §3

MCF7/siMCJ-3B cells [8] = test: as above; conditions: 3 h; for intracellular accumulation of doxorubicin: flow cytometry
Protocol: as §3

c-Jun = c-Jun expression by Western blot in MCF7 cells treated with proteasome inhibitor; conditions: MG132 5 μM, 4 h
Protocol: Whole cell extracts were prepared in lysis buffer as previously described (Pedraza-Alva et al., J Biol Chem 276, 729-737, 2001). 40-100 μg of proteins were separated by electrophoresis and transferred on to a nitrocellulose membrane (Conze et al., Cancer Res 61, 8851-8858, 2001). Primary antibodies for Western blotting include anti-ABCB1 (JSB-1 clone) from (ALEXIS corporation Switzerland), rabbit polyclonal anti-MCJ, anti-HA, anti-c-Jun, from (Cell Signaling Technology, Inc) anti-actin and the secondary antibodies goat anti-mouse HRP, goat anti-rabbit HRP and donkey anti-goat HRP Ab from (Santa Cruz Biotechnology). LUMIGLO® chemiluminescent substrate system (KPL, Maryland) was used to visualize the proteins. Levels of actin were determined as loading control.
It was determined whether the increased c-Jun DNA binding in siMCJ cells could be due to an upregulation of c-Jun protein levels. The levels of c-Jun by Western blot analysis were examined using whole cell lysates. Very low levels of c-Jun were detected in MCF7 cells, but high levels were present in MCF7/siMCJ cells (FIG. 8D). It has been previously reported that c-Jun levels can be regulated by ubiquitination and proteasome mediated degradation (Treier et al., Cell 78, 787-798, 1994). […]

MCJ = MCJ mRNA expression by RT-PCR in MCF7 cells cultured with IL-6; conditions: IL-6 50 ng/ml, 8 days (one week), RT-PCR and real-time RT-PCR
Description: Total RNA was isolated using ULTRASPEC® RNA isolation systems, as recommended by the manufacturer (Biotecx Laboratories, Inc, Houston, Tex.). The first strand cDNA was obtained by reverse transcription as described previously (Conze et al., Cancer Res 61, 8851-8858, 2001). cDNA was used to detect human […], HPRT, MCJ, ABCG2 and ABCC1 expression by conventional PCR or real-time RT-PCR. Previously described primers were used for the conventional RT-PCR amplification of ABCB1 (Noonan et al., Proc Natl Acad Sci USA 87, 7160-7164, 1990), HPRT (Conze et al., Cancer Res 61, 8851-8858, 2001), ABCC1 (Harbottle et al., Int J Cancer 92, 777-783, 2001), ABCG2 (Doyle and Ross, Oncogene 22, 7340-7358, 2003) and MCJ (Shridhar et al., Cancer Res 61, 4258-4265, 2001). For the real-time RT-PCR analysis, by TAQMAN® system (Applied Biosystems), an Assay on Demand Kit for human HPRT and ABCB1 (Sigma, Genosys) was used. For the detection of MCJ by real time RT-PCR, we used the following probe and primer set were used (Sigma, Genosys) (probe 5′-[…]-3; (SEQ ID NO:22) sense primer 5′-CAGAAAATGA GTAGGCGAGAAGC-3′ (SEQ ID NO:23) and anti-sense primer 5′-[…]-3′ (SEQ ID NO:24). HPRT was used as an endogenous control to normalize the mRNA values in each sample. The relative values were determined by the comparative CT analysis method. […]

## COc1cccc2c1C(=O)c1c(O)c3c(c(O)c1C2=O)C[C@@](O)(C(=O)CO)C[C@@H]3O[C@H]1C[C@H](N)[C@H](O)[C@H](C)O1 [doxorubicin]
MCF7 cells [1]
  response of cells to drug (percent viability, MTT assay): highly sensitive
MCF7/ADR cells [2]
  response of cells to drug (percent viability, MTT assay): highly resistant
MCF7/siMCJ-1B cells [3]
  response of cells to drug (percent viability, MTT assay): significantly more resistant
MCF7/siMCJ-3B cells [4]
  response of cells to drug (percent viability, MTT assay): significantly more resistant
MCF7 cells [5]; confocal microscopy, 1, 2 or 3 h
  doxorubicin fluorescence (intracellular accumulation): maximum level of intracellular accumulation was reached after 3 h
MCF7 cells [5]; flow cytometry, 0.3 and 3 μM, 3 h
  intracellular accumulation of doxorubicin: High levels
MCF7/ADR cells [6]
  intracellular accumulation of doxorubicin: no doxorubicin was observed
MCF7/siMCJ-1B cells [7]; confocal microscopy, 3 h
  doxorubicin fluorescence (intracellular accumulation): no doxorubicin fluorescence was observed
MCF7/siMCJ-1B cells [7]; flow cytometry, 0.3 μM, 3 h
  intracellular accumulation of doxorubicin: no intracellular accumulation
MCF7/siMCJ-1B cells [7]; flow cytometry, 3 μM, 3 h
  intracellular accumulation of doxorubicin: very low intracellular levels
MCF7/siMCJ-3B cells [8]; confocal microscopy
  doxorubicin fluorescence (intracellular accumulation): no doxorubicin fluorescence was observed
MCF7/siMCJ-3B cells [8]; 0.3 μM
  intracellular accumulation of doxorubicin: no intracellular accumulation
MCF7/siMCJ-3B cells [8]; 3 μM
  intracellular accumulation of doxorubicin: very low intracellular levels

## CC(C)C[C@@H](C=O)NC(=O)[C@H](CC(C)C)NC(=O)[C@H](CC(C)C)NC(=O)OCc1ccccc1 [MG132] (Cbz-Leu-Leu-Leu-aldehyde)
c-Jun
  c-Jun levels compared with untreated MCF7 cells: Increased levels

## COc1ccc(CCN(C)CCCC(C#N)(c2ccc(OC)c(OC)c2)C(C)C)cc1OC (stereo not shown) [verapamil]
MCF7 cells [5]; flow cytometry, verapamil 10 μM, doxorubicin 3 μM, 3 h
  effect on intracellular accumulation of doxorubicin: no effect
MCF7/siMCJ-1B cells [7]; confocal microscopy, doxorubicin 3 h
  effect on intracellular accumulation of doxorubicin: clear intracellular accumulation was observed
MCF7/siMCJ-1B cells [7]; flow cytometry, doxorubicin 3 μM, 3 h
  effect on intracellular accumulation of doxorubicin: allowed the intracellular accumulation of doxorubicin

## CC(=O)O[C@H]1C(=O)[C@@]2(C)[C@H]([C@H](OC(=O)c3ccccc3)[C@]3(O)C[C@H](OC(=O)[C@H](O)[C@@H](NC(=O)c4ccccc4)c4ccccc4)C(C)=C1C3(C)C)[C@]1(OC(C)=O)CO[C@@H]1C[C@@H]2O [paclitaxel]
MCF7 cells [1]
  response of cells to drug (percent viability, MTT assay): highly sensitive
MCF7/siMCJ-1B cells [3]
  response of cells to drug (percent viability, MTT assay): highly resistant
MCF7/siMCJ-3B cells [4]
  response of cells to drug (percent viability, MTT assay): highly resistant

## O=c1[nH]cc(F)c(=O)[nH]1 [5-FU, 5-fluorouracil]
MCF7 cells [1]; MCF7, MCF7/ADR, MCF7/siMCJ-1B and -3B cells
  dose-response compared between cell lines (MTT assay): comparable

## IL-6: exogenous IL-6 added to MCF7 cell culture
MCJ
  MCJ mRNA levels compared with untreated MCF7 cells: reduced levels

— patent US8354237B2, “Anti-methylation-controlled j protein antibodies and uses thereof” (University of Vermont and State Agriculture College, priority 2007, dated 2013)
